# Data as given in patent US10670605B2, “Cysteine reactive probes and uses thereof” (The Scripps Research Institute, priority 2015, dated 2020).
# How the values were obtained:
# Experiment in all cases: Competitive isoTOP-ABPP in situ (fragment-treated cells)
# Assay type in all cases: cell-based
# [1] = molecular target: T1, cysteines in MDA-MB-231 and Ramos cells (Homo sapiens, UniProt O95336); details: 200 μM, insitu
# T1 sequence (O95336 1-258): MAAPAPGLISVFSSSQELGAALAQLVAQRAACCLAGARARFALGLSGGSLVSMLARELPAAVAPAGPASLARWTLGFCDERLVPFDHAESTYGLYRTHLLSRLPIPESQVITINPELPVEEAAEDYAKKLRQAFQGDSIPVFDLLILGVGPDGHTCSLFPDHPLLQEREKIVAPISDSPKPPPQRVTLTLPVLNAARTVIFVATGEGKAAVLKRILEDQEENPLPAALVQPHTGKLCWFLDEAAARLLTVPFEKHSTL
# [2] = molecular target: T2, cysteines in MDA-MB-231 and Ramos cells (Homo sapiens, UniProt O95229); details: 200 μM, insitu
# T2 sequence (O95229 1-277): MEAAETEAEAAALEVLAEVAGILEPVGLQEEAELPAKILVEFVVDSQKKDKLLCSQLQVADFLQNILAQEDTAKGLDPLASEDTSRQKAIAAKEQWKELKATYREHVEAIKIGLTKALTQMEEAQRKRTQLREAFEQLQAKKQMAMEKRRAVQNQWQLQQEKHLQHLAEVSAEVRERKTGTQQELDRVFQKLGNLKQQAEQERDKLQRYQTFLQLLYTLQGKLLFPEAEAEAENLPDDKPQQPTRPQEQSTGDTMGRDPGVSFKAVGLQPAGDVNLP
# [3] = molecular target: T3, cysteines in MDA-MB-231 and Ramos cells (Homo sapiens, UniProt O14879); details: 200 μM, insitu, 231
# T3 sequence (O14879 1-490): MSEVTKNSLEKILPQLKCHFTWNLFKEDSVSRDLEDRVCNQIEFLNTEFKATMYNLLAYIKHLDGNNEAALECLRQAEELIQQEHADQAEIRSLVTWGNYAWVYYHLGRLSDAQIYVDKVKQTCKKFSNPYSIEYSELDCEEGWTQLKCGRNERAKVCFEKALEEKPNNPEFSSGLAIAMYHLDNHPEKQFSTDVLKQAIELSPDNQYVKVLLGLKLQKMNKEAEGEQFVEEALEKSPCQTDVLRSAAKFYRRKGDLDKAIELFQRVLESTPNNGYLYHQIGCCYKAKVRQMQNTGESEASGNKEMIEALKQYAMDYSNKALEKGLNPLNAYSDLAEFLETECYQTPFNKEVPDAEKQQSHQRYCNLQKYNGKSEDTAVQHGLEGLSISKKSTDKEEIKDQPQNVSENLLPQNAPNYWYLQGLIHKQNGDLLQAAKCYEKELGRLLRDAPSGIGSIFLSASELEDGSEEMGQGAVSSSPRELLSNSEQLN
# [4] = molecular target: T4, cysteines in MDA-MB-231 and Ramos cells (Homo sapiens, UniProt P35611); details: 200 μM, insitu, 231
# T4 sequence (P35611 1-737): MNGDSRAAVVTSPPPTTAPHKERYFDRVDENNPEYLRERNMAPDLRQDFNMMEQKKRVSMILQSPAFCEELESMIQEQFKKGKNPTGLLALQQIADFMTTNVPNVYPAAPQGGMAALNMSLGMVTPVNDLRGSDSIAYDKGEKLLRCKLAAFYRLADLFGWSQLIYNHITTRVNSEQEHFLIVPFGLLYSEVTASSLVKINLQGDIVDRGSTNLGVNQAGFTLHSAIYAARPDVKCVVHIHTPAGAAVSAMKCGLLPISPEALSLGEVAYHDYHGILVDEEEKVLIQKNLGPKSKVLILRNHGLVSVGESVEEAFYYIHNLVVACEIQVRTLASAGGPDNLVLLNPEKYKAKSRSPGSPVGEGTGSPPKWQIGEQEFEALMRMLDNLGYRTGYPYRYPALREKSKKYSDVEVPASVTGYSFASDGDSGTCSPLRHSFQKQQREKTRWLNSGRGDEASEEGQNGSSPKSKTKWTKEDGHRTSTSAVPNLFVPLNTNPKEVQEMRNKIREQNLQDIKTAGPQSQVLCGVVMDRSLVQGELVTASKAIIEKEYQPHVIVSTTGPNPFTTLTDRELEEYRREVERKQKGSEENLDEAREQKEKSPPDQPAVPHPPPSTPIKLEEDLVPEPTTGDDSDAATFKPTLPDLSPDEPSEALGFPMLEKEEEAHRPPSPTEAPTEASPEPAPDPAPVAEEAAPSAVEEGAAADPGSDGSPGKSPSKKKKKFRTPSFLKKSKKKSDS
# [5] = molecular target: T5, cysteines in MDA-MB-231 and Ramos cells (Homo sapiens, UniProt P31943); details: 200 μM, insitu
# T5 sequence (P31943 1-449): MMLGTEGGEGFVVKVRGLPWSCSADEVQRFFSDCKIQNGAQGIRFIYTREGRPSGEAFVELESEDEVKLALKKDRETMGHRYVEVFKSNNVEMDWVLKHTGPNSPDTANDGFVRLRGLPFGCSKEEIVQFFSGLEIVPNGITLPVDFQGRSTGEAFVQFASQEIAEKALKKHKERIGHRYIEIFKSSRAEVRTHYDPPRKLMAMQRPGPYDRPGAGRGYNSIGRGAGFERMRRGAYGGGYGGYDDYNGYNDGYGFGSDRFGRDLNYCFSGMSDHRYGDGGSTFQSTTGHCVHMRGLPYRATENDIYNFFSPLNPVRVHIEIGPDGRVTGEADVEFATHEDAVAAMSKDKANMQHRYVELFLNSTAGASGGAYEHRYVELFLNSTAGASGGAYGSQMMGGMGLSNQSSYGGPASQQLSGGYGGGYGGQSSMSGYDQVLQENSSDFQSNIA
# [6] = molecular target: T6, cysteines in MDA-MB-231 and Ramos cells (Homo sapiens, UniProt Q96AB3); details: 200 μM, insitu
# T6 sequence (Q96AB3 1-205): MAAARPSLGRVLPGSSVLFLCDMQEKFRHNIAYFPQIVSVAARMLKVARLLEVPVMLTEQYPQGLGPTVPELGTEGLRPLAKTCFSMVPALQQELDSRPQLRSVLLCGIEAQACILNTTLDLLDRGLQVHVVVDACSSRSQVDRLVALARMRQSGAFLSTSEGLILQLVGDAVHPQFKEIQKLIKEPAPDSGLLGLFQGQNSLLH
# [7] = molecular target: T7, cysteines in MDA-MB-231 and Ramos cells (Homo sapiens, UniProt P23919); details: 200 μM, insitu
# T7 sequence (P23919 1-212): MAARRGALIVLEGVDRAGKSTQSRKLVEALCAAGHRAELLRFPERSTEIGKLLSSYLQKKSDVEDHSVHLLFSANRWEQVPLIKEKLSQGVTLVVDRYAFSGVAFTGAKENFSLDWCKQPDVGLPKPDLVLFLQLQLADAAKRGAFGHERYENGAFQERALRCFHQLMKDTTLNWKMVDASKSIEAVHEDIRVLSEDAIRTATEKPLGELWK
SMILES,isoTOP-ABPP ratio O95336_C32 [1]; 231,isoTOP-ABPP ratio O95229_C54 [2]; 231,isoTOP-ABPP ratio O14879_C343 [3],isoTOP-ABPP ratio P35611_C68 [4],isoTOP-ABPP ratio P31943_C267 [5]; 231,isoTOP-ABPP ratio Q96AB3_C114 [6]; 231,"isoTOP-ABPP ratio, cysteine P23919_C117 [7]; 231",isoTOP-ABPP ratio P23919_C163 [7]; 231,isoTOP-ABPP ratio O95336_C32 ([1]; ramos),isoTOP-ABPP ratio O95229_C54 ([2]; ramos),isoTOP-ABPP ratio P31943_C267 ([5]; ramos),isoTOP-ABPP ratio Q96AB3_C114 ([6]; ramos),isoTOP-ABPP ratio P23919_C117 ([7]; ramos),isoTOP-ABPP ratio P23919_C163 ([7]; ramos),isoTOP-ABPP ratio P23919_C117 [7]; 231
O=C(CCl)NC(=O)NC12CC3CC(CC(C3)C1)C2 [compound 12],20.0,20.0,3.5,3.6,5.0,1.6,0.2,–,–,–,–,–,–,–,–
COc1ccccc1OCCNC(=O)CCl [compound 28],–,0.7,0.7,1.7,–,0.8,–,0.4,–,–,–,–,–,–,–
O=C(CCl)N1CCN(CC(=O)N2CCOCC2)CC1 [compound 29],–,–,–,–,–,–,–,–,3.0,1.2,1.4,1.1,1.6,–,–

# The next lines start with the values.
isoTOP-ABPP ratio O95336_C32 [1]; 231,isoTOP-ABPP ratio O95229_C54 [2]; 231,isoTOP-ABPP ratio O14879_C343 [3],isoTOP-ABPP ratio P35611_C68 [4],isoTOP-ABPP ratio P31943_C267 [5]; 231,isoTOP-ABPP ratio Q96AB3_C114 [6]; 231,"isoTOP-ABPP ratio, cysteine P23919_C117 [7]; 231",isoTOP-ABPP ratio P23919_C163 [7]; 231,isoTOP-ABPP ratio O95336_C32 ([1]; ramos),isoTOP-ABPP ratio O95229_C54 ([2]; ramos),isoTOP-ABPP ratio P31943_C267 ([5]; ramos),isoTOP-ABPP ratio Q96AB3_C114 ([6]; ramos),isoTOP-ABPP ratio P23919_C117 ([7]; ramos),isoTOP-ABPP ratio P23919_C163 ([7]; ramos),isoTOP-ABPP ratio P23919_C117 [7]; 231,SMILES
–,–,0.9,–,0.7,0.7,–,–,1.7,–,0.9,–,–,1.0,–,C=CC(=O)N(Cc1cccnc1)c1cc(C(F)(F)F)cc(C(F)(F)F)c1 [compound 31]
2.8,–,–,1.4,1.2,1.2,–,5.7,–,–,–,–,–,–,4.4,C=CC(=O)Nc1cc(F)c(N2CCN(C(=O)OC(C)(C)C)CC2)c(F)c1 [compound 38]
–,–,4.0,20.0,3.6,3.1,–,–,–,–,–,–,–,–,–,CC1CCc2ccccc2N1C(=O)CCl (centres unmarked) [compound 45]
–,1.0,1.3,1.0,1.3,0.8,–,–,–,–,–,–,–,–,–,O=C(CCl)Nc1cccc2ncccc12 [compound 51]
